Measured values taken from patent publication US9636410B2, “Cationic oil-in-water emulsions” (priority 2011, dated 2017).

What was measured:
physchem = details: oil or lipid, thermodynamic from solid
[1] = Solubility of fatty acids in squalene; details: for solubility: oil or lipid, thermodynamic from solid
[2] = 4 °C, solubility in squalene, 4° C. (overnight), solution at the fatty acid's top concentration left at 4° C. overnight
[3] = 60 °C, solubility in squalene at 40 mg/mL, mixed with squalene at 60° C.
[4] = 60 °C, solubility in squalene at 5 mg/mL, mixed with squalene at 60° C.
[5] = 60 °C, solubility in squalene at 10 mg/mL, mixed with squalene at 60° C.
[6] = 60 °C, solubility in squalene at 20 mg/mL, mixed with squalene at 60° C.

**Q.** Which solubility (physchem; [2]) does the source give for CC/C=C\C/C=C\C/C=C\CCCCCCCC(=O)O [Linolenic Acid (18:3), Linolenic Acid] here?
**A.** The solubility was over 40 mg/mL.

**Q.** What about the solubility (physchem; [3]) of the same compound?
**A.** The solubility was over 40 mg/mL.

**Q.** Which results are given for CCCCCCCCCCCCCCCCC(=O)O [Heptadecanoic Acid]?
**A.** solubility (physchem; [2]): < 40 mg/mL; solubility (physchem; [4]): > 5 mg/mL; solubility (physchem; [5]): < 10 mg/mL; solubility (physchem; [6]): < 20 mg/mL; solubility (physchem; [3]): < 40 mg/mL

**Q.** For CCCCCCCCCCCCCCCCCCCCC(=O)O [Heneicosanoic Acid], which solubility (physchem; [2]) is on record?
**A.** Its solubility is under 40 mg/mL.

**Q.** What about the solubility (physchem; [4]) of the same compound?
**A.** The solubility was under 5 mg/mL.

**Q.** What about the solubility (physchem; [5]) of the same compound?
**A.** The solubility was under 10 mg/mL.

**Q.** And the solubility (physchem; [6])?
**A.** Its solubility is under 20 mg/mL.

**Q.** And the solubility (physchem; [3])?
**A.** Its solubility is under 40 mg/mL.

**Q.** Which solubility ([1]; 4 °C) does the source give for CCCCCCCCCCC/C=C\CCCCC(=O)O [Petroselinic Acid (18:1), Petroselinic Acid] here?
**A.** Its solubility is over 40 mg/mL.

**Q.** What about the solubility ([1]; 60 °C) of the same compound?
**A.** Its solubility is over 40 mg/mL.

**Q.** With CCCCCCCC/C=C\CCCCCCCCCCCC(=O)O [Erucic Acid (22:1), Erucic Acid] as the compound, how does the solubility (physchem; 4 °C) read?
**A.** The solubility was over 40 mg/mL.

**Q.** And the solubility (physchem; 60 °C)?
**A.** Its solubility is over 40 mg/mL.

**Q.** Which results are given for CCCCCCCCCCCCCCCCCCC(=O)O [Nonadecanoic Acid]?
**A.** solubility (physchem; [2]): < 40 mg/mL; solubility (physchem; [4]): < 5 mg/mL; solubility (physchem; [5]): < 10 mg/mL; solubility (physchem; [6]): < 20 mg/mL; solubility (physchem; [3]): < 40 mg/mL

**Q.** What does the source list for CCCCCCCCCCCCCCCCCCCCCCC(=O)O [Tricosanoic Acid]?
**A.** solubility (physchem; [2]): < 40 mg/mL; solubility (physchem; [4]): < 5 mg/mL; solubility (physchem; [5]): < 10 mg/mL; solubility (physchem; [6]): < 20 mg/mL; solubility (physchem; [3]): < 40 mg/mL

**Q.** For CCCCCCCCCCCCC(=O)O [Tridecanoic Acid], which solubility (physchem; [2]) is on record?
**A.** The solubility was under 40 mg/mL.

**Q.** What about the solubility (physchem; [3]) of the same compound?
**A.** Its solubility is over 40 mg/mL.

**Q.** Which solubility (physchem; [2]) does the source give for CCCCCCCCCCCCCC(=O)O [Myristic Acid (14:0), Myristic Acid] here?
**A.** The solubility was under 40 mg/mL.

**Q.** What about the solubility (physchem; [6]) of the same compound?
**A.** Its solubility is over 20 mg/mL.

**Q.** What about the solubility (physchem; [3]) of the same compound?
**A.** The solubility was under 40 mg/mL.

**Q.** For CCCCCCCCCCCCCCCCCCCCCCCC(=O)O [Lignoceric Acid (24:0), Lignoceric Acid], which solubility (physchem; [2]) is on record?
**A.** Its solubility is under 40 mg/mL.

**Q.** And the solubility (physchem; [4])?
**A.** The solubility was under 5 mg/mL.

**Q.** What about the solubility (physchem; [5]) of the same compound?
**A.** The solubility was under 10 mg/mL.

**Q.** What about the solubility (physchem; [6]) of the same compound?
**A.** The solubility was under 20 mg/mL.

**Q.** What about the solubility (physchem; [3]) of the same compound?
**A.** The solubility was under 40 mg/mL.

**Q.** With CCCCCC/C=C\CCCCCCCC(=O)O [Palmitoleic Acid (16:1), Palmitoleic Acid] as the compound, how does the solubility (physchem; [2]) read?
**A.** Its solubility is over 40 mg/mL.

**Q.** What about the solubility (physchem; [3]) of the same compound?
**A.** Its solubility is over 40 mg/mL.

**Q.** With CCCCC/C=C\C/C=C\CCCCCCCC(=O)O [Linoleic Acid (18:2), Linoleic Acid] as the compound, how does the solubility (physchem; 4 °C) read?
**A.** The solubility was over 40 mg/mL.

**Q.** And the solubility (physchem; 60 °C)?
**A.** Its solubility is over 40 mg/mL.

**Q.** For CCCCCCCCCCCCCCCCCCCC(=O)O [Arachidic Acid (20:0), Arachidic Acid], which solubility (physchem; [2]) is on record?
**A.** The solubility was under 40 mg/mL.

**Q.** What about the solubility (physchem; [4]) of the same compound?
**A.** Its solubility is over 5 mg/mL.

**Q.** And the solubility (physchem; [5])?
**A.** Its solubility is under 10 mg/mL.

**Q.** And the solubility (physchem; [6])?
**A.** The solubility was under 20 mg/mL.

**Q.** What about the solubility (physchem; [3]) of the same compound?
**A.** The solubility was under 40 mg/mL.

**Q.** Which results are given for CCCCCCCC/C=C/CCCCCCCC(=O)O [Elaidic Acid (18:1)-trans, Elaidic Acid]?
**A.** solubility (physchem; [2]): < 40 mg/mL; solubility (physchem; [3]): > 40 mg/mL

**Q.** For CC/C=C\C/C=C\C/C=C\C/C=C\C/C=C\C/C=C\CCC(=O)O [Docosahexaenoic Acid (22:6), Docosahexaenoic Acid], which solubility (physchem; [2]) is on record?
**A.** The solubility was over 40 mg/mL.

**Q.** What about the solubility (physchem; [3]) of the same compound?
**A.** The solubility was over 40 mg/mL.

**Q.** Which solubility (physchem; [2]) does the source give for CCCCCCCCCCCCCCC(=O)O [Pentadecanoic Acid] here?
**A.** Its solubility is under 40 mg/mL.

**Q.** What about the solubility (physchem; [3]) of the same compound?
**A.** Its solubility is over 40 mg/mL.

**Q.** What does the source list for CCCCCCCC/C=C\CCCCCCCCCCCCCC(=O)O [Nervonic Acid (24:1), Nervonic Acid]?
**A.** solubility (physchem; [2]): < 40 mg/mL; solubility (physchem; [3]): > 40 mg/mL

**Q.** For CCCCCCCC/C=C\CCCCCCCC(=O)O [Oleic Acid (18:1)-cis, Oleic Acid], which solubility (physchem; [2]) is on record?
**A.** The solubility was over 40 mg/mL.

**Q.** And the solubility (physchem; [3])?
**A.** The solubility was over 40 mg/mL.

**Q.** What about the solubility in squalene ([1]; 40 mg/ml) of the same compound?
**A.** Its solubility in squalene is “soluble in squalene”.

**Q.** And the solubility in squalene ([1]; 4° C. overnight)?
**A.** Its solubility in squalene is “remained soluble in squalene”.

**Q.** For CCCCCCCCCCC(=O)O [Undecanoic Acid], which solubility (physchem; [2]) is on record?
**A.** The solubility was over 40 mg/mL.

**Q.** And the solubility (physchem; [3])?
**A.** The solubility was over 40 mg/mL.

**Q.** Which results are given for CCCCCCCCCCCCCCCCCCCCCC(=O)O [Behenic Acid (22:0), Behenic Acid]?
**A.** solubility (physchem; [2]): < 40 mg/mL; solubility (physchem; [4]): < 5 mg/mL; solubility (physchem; [5]): < 10 mg/mL; solubility (physchem; [6]): < 20 mg/mL; solubility (physchem; [3]): < 40 mg/mL

**Q.** With CCCCCCCCCCCC(=O)O [Lauric acid (12:0), Lauric acid] as the compound, how does the solubility (physchem; 4 °C) read?
**A.** The solubility was under 40 mg/mL.

**Q.** What about the solubility (physchem; 60 °C) of the same compound?
**A.** Its solubility is over 40 mg/mL.
